The pEC50 is the EC50 on a negative log10 scale, so that one unit is a factor of ten. Lower therefore signals a high EC50. As usually defined, the Emax is the greatest response seen or fitted, relative to the assay's reference.

pEC50: −log10 of the molar value.

This is an account of results in patent US12331051B2 (priority 2021, dated 2025).

For one experiment, the system named is mice. Put plainly: Tolerance after repeated dosing, HTR to DOI challenge. Conditions: IP once daily 7 days: DOI 10 mg/kg/day, E559 polymorph 3 mg/kg/day; DOI 1 mg/kg challenge 24 hours later. In kind it is in vivo, mouse. On the procedure:
To determine if repeated dosing of the “E559 polymorph” can induce tolerance in vivo, HTR experiment described in Examples 2 and 5 was repeated where mice received IP injections of vehicle, DOI (10 mg/kg/day), or the “E559 polymorph” (3 mg/kg/day; once daily for 7 consecutive days) and were then challenged with DOI (1 mg/kg) 24 hours later. Data shown in FIG. 22 are group means±standard deviation for the entire 60 minutes test session. Asterisks indicate statistical significances compared to the Vehicle control (Vehicle was saline).

Experiment [1] deals with H1 histaminergic receptor (Homo sapiens, UniProt P35367). Put plainly: BRET-based G protein dissociation assay. In kind it is cell-based. A general note: BRET reads energy transfer from a luciferase to a nearby fluorophore.
H1 histaminergic receptor, sequence (P35367 whole entry): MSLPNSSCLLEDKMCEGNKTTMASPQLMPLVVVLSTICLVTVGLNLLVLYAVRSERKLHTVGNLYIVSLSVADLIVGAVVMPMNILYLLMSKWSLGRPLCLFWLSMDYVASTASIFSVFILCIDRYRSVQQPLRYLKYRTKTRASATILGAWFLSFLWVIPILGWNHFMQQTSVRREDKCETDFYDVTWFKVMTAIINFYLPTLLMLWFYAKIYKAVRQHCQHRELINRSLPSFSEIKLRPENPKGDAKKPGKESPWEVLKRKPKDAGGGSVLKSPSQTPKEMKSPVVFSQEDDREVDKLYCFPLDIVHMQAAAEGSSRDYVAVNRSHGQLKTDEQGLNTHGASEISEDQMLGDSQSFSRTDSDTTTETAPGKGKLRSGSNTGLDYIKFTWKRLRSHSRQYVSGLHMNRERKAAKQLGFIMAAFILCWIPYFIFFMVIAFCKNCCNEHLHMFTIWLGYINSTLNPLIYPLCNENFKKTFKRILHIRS
The target of experiment [2] is ADRa2A (α2A adrenergic receptor) (Homo sapiens, UniProt P08913). In words: BRET-based G protein dissociation assay. The experiment is classed as cell-based.
ADRa2A (α2A adrenergic receptor), sequence (P08913 whole entry): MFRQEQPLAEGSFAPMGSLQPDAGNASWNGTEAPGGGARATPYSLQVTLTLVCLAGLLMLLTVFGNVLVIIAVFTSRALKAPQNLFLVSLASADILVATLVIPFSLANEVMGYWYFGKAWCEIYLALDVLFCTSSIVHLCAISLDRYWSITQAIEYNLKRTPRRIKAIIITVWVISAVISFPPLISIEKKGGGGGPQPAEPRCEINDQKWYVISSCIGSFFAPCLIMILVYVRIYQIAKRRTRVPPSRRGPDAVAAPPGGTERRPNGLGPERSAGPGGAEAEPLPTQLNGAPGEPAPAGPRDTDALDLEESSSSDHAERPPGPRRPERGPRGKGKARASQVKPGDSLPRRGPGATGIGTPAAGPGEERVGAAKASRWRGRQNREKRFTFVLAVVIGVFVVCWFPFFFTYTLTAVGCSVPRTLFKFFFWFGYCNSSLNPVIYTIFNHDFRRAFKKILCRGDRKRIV
In experiment [3] the test system is prefrontal cortex region of mice. Put plainly: Spine density analysis in the prefrontal cortex after FST. The experiment is classed as in vivo, mouse. The note with it: both sexes, 1 mg/kg, ~26 hour after treatment. How it is done: Following testing in the FST, brains were collected for spine density analysis in the prefrontal cortex region (˜26 hour after treatment; FIG. 25H).

Experiment [4] deals with ADRa1B (α1B adrenergic receptor) (Homo sapiens, UniProt P35368). Put plainly: BRET-based G protein dissociation assay. In kind it is cell-based.
ADRa1B (α1B adrenergic receptor), sequence (P35368 whole entry): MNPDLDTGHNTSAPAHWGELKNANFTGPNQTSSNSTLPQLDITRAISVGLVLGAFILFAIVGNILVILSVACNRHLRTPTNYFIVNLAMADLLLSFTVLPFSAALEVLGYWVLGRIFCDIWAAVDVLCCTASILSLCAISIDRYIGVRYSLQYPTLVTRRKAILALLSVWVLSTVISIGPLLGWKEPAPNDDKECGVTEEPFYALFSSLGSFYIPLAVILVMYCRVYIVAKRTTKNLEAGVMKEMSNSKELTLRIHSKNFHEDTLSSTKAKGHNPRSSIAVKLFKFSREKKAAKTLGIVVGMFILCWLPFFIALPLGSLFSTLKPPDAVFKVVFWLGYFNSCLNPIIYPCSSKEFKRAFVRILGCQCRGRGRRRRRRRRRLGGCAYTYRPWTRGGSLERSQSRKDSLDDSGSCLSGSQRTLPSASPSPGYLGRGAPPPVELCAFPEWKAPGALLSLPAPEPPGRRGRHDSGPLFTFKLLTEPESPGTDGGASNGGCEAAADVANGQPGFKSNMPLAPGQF
A further experiment relates to stress naive mice. In words: Forced swim test (FST), stress naive mice. The experiment is classed as in vivo, mouse. On the procedure: In brief, stress naive mice were treated (IP injection) with either saline (control) or single dose of the “E559 polymorph” at 0.3, 1, or 3 mg/kg dose levels and were evaluated 24 hours (OFT) and […] after treatment. The OFT was performed described in Example 13. The FST was performed as previously described in (Aguilar-Valles et al., Nature, 2021, 590, p315-319). Briefly FST was performed 24-hour post treatment by placing the mice (one by one) in a 4-liter wide-mouthed flask of 35° C. water. Mice activities were recorded for 6 minutes and assessed for total time the animal remains immobile, a sign of depressive-like behavior. FIG. 25A depicts the study design where female/male mice (n=10/group/sex) were treated by IP injection with the “E559 polymorph” or vehicle (saline) followed by open field and force swim test 24 hours post treatment. FIGS. 25B and 25E represent the total distance travelled in the open field test 24 hours after vehicle or the “E559 polymorph” in female and male mice, respectively. FIGS. 25C and 25F represent the time in the center of the open field by female and male mice, respectively. FIGS. 25D and 25G represent the immobility time during the last 4 minutes of the forced swim test in female and male mice, respectively. Horizontal lines represent the mean±standard error of the mean (S.E.M.) and asterisks indicate statistical significances.

The target of experiment [5] is T1, ADRa2C (α2C adrenergic receptor) (Homo sapiens, UniProt P18825).
T1 sequence (P18825 1-462): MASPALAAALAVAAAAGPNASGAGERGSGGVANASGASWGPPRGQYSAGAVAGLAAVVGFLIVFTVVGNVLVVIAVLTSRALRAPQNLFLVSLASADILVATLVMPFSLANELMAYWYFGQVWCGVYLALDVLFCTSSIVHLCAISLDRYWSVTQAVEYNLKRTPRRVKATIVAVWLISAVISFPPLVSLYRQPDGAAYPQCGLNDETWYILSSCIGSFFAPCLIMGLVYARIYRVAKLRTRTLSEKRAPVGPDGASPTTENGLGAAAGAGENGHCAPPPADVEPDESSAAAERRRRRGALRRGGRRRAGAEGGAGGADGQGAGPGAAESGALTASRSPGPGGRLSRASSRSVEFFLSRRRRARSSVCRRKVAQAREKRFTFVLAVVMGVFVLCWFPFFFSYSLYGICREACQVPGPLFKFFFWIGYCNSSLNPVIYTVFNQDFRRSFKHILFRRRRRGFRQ
Put plainly: cell-based.

In the next experiment the target is T2, 5-HT1F (Homo sapiens, UniProt P30939).
T2 construct: expressed in transfected cells; host or cells: HEK-293
T2 sequence (P30939 1-366): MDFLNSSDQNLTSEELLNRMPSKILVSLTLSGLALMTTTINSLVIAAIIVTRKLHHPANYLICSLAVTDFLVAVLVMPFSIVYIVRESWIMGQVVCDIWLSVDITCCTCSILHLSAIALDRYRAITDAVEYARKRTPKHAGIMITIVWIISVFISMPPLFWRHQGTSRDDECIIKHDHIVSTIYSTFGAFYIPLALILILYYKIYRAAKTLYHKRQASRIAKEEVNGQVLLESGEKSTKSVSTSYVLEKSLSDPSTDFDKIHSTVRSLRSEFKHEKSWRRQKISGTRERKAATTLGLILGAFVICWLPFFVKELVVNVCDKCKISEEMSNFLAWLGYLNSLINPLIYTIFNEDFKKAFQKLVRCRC
In words: Functional assay (cAMP). In kind it is cell-based. How it is done: Neuro-receptor binding and functional effects of the “E559 polymorph” was examined by analyzing binding affinity [Ki (nM)], functional agonist activity [EC50 (nM)], and functional antagonist activity [IC50 (nM)] against a panel of key receptors in neurophysiological disorders. Binding and functional assays were performed at “E559 polymorph” concentrations of 0.0003, 0.003, 0.01, 0.03, 0.1, 0.3, 1, and 10 μM. In binding assays, cell membrane homogenates, expressing each receptor target, were incubated with the corresponding radio-ligand in absence or presence of several concentration of the “E559 polymorph” compound. The measurement of binding affinity of the “E559 polymorph” is represented in TABLE XIII by Ki (nM) which was calculated as percent inhibition of the binding of a radioactively labeled reference ligand at each receptor. In functional assays the HEK-293 cells expressing each receptor target were suspended in buffer and distribute in microplates and incubated for 30 minutes at room temperature or 37° C. in the presence of buffer alone (basal control), the reference agonist or antagonist, or the “E559 polymorph. Following incubation, the cells were lysed and the appropriate fluorescent probe (Ca2+ flux, cAMP, or IP1) were added for 60 minutes to measure the fluorescence transfer at the appropriate wavelength using a microplate reader. The cellular agonist effect (EC50) was calculated as a percent of control response to a known reference agonist and the cellular antagonist effect (IC50) was calculated as a percent inhibition of control reference agonist response for each receptor.
The functional agonist activity [EC50 (nM), Emax], and functional antagonist activity [IC50 (nM)] of the 5R:8S stereoisomer of the “E559 polymorph” (5R:8S E558) was compared with the “E559 polymorph” (a 5R:8R stereoisomer) at selected serotonin receptors. The assays were performed as described in Example 6.

With `CCN(CC)C(=O)[C@@H]1C=C2c3cccc4[nH]c(Br)c(c34)C[C@H]2N(C)C1` [E559, (5R, 8R)-2-Bromo-9,10-didehydro-N,N-diethyl-6-methylergoline-8-carboxamide hemi-D-tartrate], in the experiment with mice, the “tolerance (tachyphylaxis) after repeated dosing, HTR count on DOI challenge” value is on record as “no tolerance was observed”. In addition, the negative-log EC50 (pEC50) was 6.82 in experiment [1], 6.55 in experiment [2], 7.99 in experiment [5] and 7.86 on 5-HT1F. Also, the Kb in experiment [1] amounted to 0.983 µM; in experiment [2] it was 0.0119 µM; in experiment [4], 0.0559 µM; in experiment [5], 0.016 µM. The “average spine density in prefrontal cortex” value in experiment [3] is “significant increase in the average spine density”. Besides, the decrease in immobility with stress naive mice (female mice, IP 1 mg/kg) came to 35.18 ± 10.03 s; in the experiment on stress naive mice (male mice, IP 1 mg/kg), 27.27 ± 8.226 s; with stress naive mice (male mice, IP 3 mg/kg), 31.36 ± 8.226 s. Besides, the Emax in experiment [5] turned out to be 40.5%; at 5-HT1F (cAMP, ligand 5-HT, read-out: Functional Assay (agonist) Emax) it was 92.6%.
